Measured values as given in US9895450B2, “Anti-wall teichoic antibodies and conjugates” (priority 2013, dated 2018).

Columns and labels:
MRSA [1] = experiment: growth inhibition assay / cathepsin release assay; type: cell-based, S. aureus; details: MRSA cultured overnight with up to 10 μg/mL of AAC
Protocol: An AAC comprising antibody rF1, which binds to a family of cell wall associated proteins was conjugated to a rifamycin derivative. S. aureus (Newman strain) was treated with various doses of the rF1-AAC or with equivalent doses of either antibody alone, rifampicin alone or a mixture of antibody and free rifampicin to permit antibody binding to the bacteria (opsonization) and after 1 hour incubation the opsonized bacteria were fed to macrophages (FIG. 7A).
See: page 863 of Dubowchik et al (2002) Bioconj. Chem. 13:855-869, incorporated by reference for the purposes of this assay. Cathepsin B (from bovine spleen, SIGMA C7800) was added at 10 μg/mL and the samples were incubated for 1 hour at 37° C. As a control, AAC were incubated in buffer alone. The reaction was stopped by addition of 10 volumes of bacterial growth media, Tryptic Soy Broth pH 7.4 (TSB). To estimate the total release of active antibiotic, serial dilutions of the reaction mixture were made in quadruplicate in TSB in 96 well plates and the USA300 strain of S. aureus was added to each well at a final density of 2×10^3 CFU/mL. The cultures were incubated over night at […] with shaking and bacterial growth was measured by reading absorbance at 630 nm using a plate reader.

MRSA (USA300 strain) [2] = experiment: intravenous infection model in A/J mice; type: in vivo
Protocol: Efficacy of the AAC in an intravenous infection model was also examined. In this model, S. aureus is taken up by circulating neutrophils shortly after infection such that the majority of bacteria found in blood are associated with host cells within minutes after infection (Rogers, et al (1956) J. Exp. Med. 103:713-742). A/J Mice were infected with 2×10^6 CFU of MRSA by intravenous injection, and then treated with 50 mg/Kg of AACs by intravenous injection 30 minutes post infection. In this model, the primary site of infection is the kidney, and mice develop large abscesses that are detectable by two days post infection and fail to be cleared for up to 30 days in the absence of treatment.
Treatments were delivered by IV injection 30 minutes post infection and kidneys were harvested 4 days post infection. The grey dashed line indicates the limit of detection for each organ.
Efficacy of AAC made with pipBOR and dimethyl-pipBOR antibiotic moieties was compared in vivo in the intravenous infection model in A/J mice. […] Seven week old female A/J Mice were infected with 2×10^6 CFU of MRSA (USA300 strain) by intravenous injection into the tail vein. […] Treatments with S4497 antibody, AAC 102 or AAC 105 were administered at the indicated doses 30 minutes after infection. Mice were sacrificed 4 days after infection and the total number of surviving bacteria per mouse (2 kidneys pooled) was determined by plating.
(§1) Intravenous Infection Model: 7 week old female mice were used for all in vivo experiments and infections were carried out by intravenous injection into the tail vein. A/J mice (Jackson Lab) were infected with a dose of 2×10^6 CFU. Balb/c mice (Charles River Laboratories, Hollister, Calif.) were infected with a dose of 2×10^7 CFU. […] The total number of bacteria recovered per mouse (2 kidneys) was determined by plating serial dilutions of the tissue homogenate in PBS 0.05% Tween on Tryptic Soy Agar with 5% defibrinated sheep blood.

MRSA (USA300 strain) [3] = experiment: in vitro macrophage assay (intracellular killing of opsonized MRSA); type: cell-based, S. aureus; details: 50 μg/mL; macrophages, osteoblasts (MG63), airway epithelial cells (A549), HUVEC
Protocol: Isolation of Peritoneal Macrophages: Peritoneal macrophages were isolated from the peritoneum of 6-8 week old Balb/c mice (Charles River Laboratories, Hollister, Calif.). To increase the yield of macrophages, mice were pre-treated by intraperitoneal injection with 1 mL of thioglycolate media (Becton Dickinson). The thioglycolate media was prepared at a concentration of 4% in water, sterilized by autoclaving, and aged for 20 days to 6 months prior to use. Peritoneal macrophages were harvested 4 days post treatment with thioglycolate by washing the peritoneal cavity with cold phosphate buffered saline. Macrophages were plated in Dulbecco's Modified Eagle Medium (DMEM) supplemented with 10% Fetal Calf Serum, and 10 mM HEPES, without antibiotics, at a density of 4×10^5 cells/well in 24 well culture dishes. Macrophages were cultured over night to permit adherence to the plate. This assay was also utilized to test intracellular killing in non-phagocytic cell types. […]
Infection of Macrophages with Opsonized MRSA: The USA300 strain of MRSA (NRS384) was obtained from the NARSA repository (Chantilly, Va.). […] Serial dilutions of the lysate were made in phosphate buffered saline solution supplemented with 0.05% Tween-20 (to disrupt aggregates of bacteria) and the total number of surviving intracellular bacteria was determined by plating on Tryptic Soy Agar with 5% defibrinated sheep blood.

[4] = system: MRSA (NRS384 strain of USA300); experiment: MIC determinations for intracellular bacteria (inside mouse peritoneal macrophages); type: cell-based, S. aureus; details: for killing of intracellular MRSA sequestered inside macrophages: dose range including serum Cmax; for potency at killing intracellular MRSA as free antibiotics: tested as free antibiotics
[5] = clinically achieveable serum levels; cited from earlier work
USA300 = experiment: intravenous infection model in Balb/c mice, pre-treatment; type: in vivo; details: antibodies 50 mg/Kg IV 30 minutes prior to infection; vancomycin 110 mg/Kg twice daily IP; day 4
Protocol: Balb/c mice were given a single dose of vehicle control (PBS) or 50 mg/Kg of antibodies by intravenous injection 30 minutes prior to infection with 2×10^7 CFU of USA300. […] Control mice were given twice daily treatments with 110 mg/Kg of vancomycin by intraperitoneal injection (Vanco). All mice were sacrificed on day 4 post-infection, and the total number of surviving bacteria in kidneys (2 kidneys pooled) was determined by plating.
(§2) Intravenous Infection Model: 7 week old female mice were used for all in vivo experiments and infections were carried out by intravenous injection into the tail vein. A/J mice (Jackson Lab) were infected with a dose of 2×10^6 CFU. Balb/c mice (Charles River Laboratories, Hollister, Calif.) were infected with a dose of 2×10^7 CFU. For studies examining the role of competing human IgG (SCID IVIG model), CB17.SCID mice (Charles River Laboratories, Hollister, Calif.) were reconstituted with GammaGard S/D IGIV Immune Globulin (ASD Healthcare, Brooks Ky.) using a dosing regimen optimized to achieve constant serum levels of >10 mg/mL of human IgG. […] The total number of bacteria recovered per mouse (2 kidneys) was determined by plating serial dilutions of the tissue homogenate in PBS 0.05% Tween on Tryptic Soy Agar with 5% defibrinated sheep blood.

MRSA [6] = details: vancomycin 2 and 20 μg/mL; rifampin 0.02 and 0.2 μg/mL; TSB
MRSA (USA300) = experiment: intravenous infection model in CB17.SCID mice reconstituted with human IgG (SCID:huIgG); type: in vivo; details: twice-daily 100 mg/Kg, treatment initiated more than 1 day post infection
Protocol: To confirm that the AAC would be effective in the presence of competing human antibodies in vivo, the in vivo infection model was modified to generate mice that express normal levels of human IgG in the serum. […] Four days after infection the bacterial load in the kidneys (FIG. 10C) was assessed.
CB17.SCID mice were reconstituted with human IgG using a dosing regimen optimized to yield constant levels of at least 10 mg/mL of human IgG in serum.
Efficacy of the AAC was compared with that of treatment with vancomycin, the current standard of care treatment for MRSA infections. […]
CB17.SCID mice were reconstituted with human IgG using a dosing regimen optimized to yield constant levels of at least 10 mg/mL of human IgG in serum and infected with 2×10^7 CFU of USA300 by intravenous injection. […] The mice were sacrificed on day 4 post infection, and the total number of surviving bacteria in kidneys (2 kidneys pooled, FIG. 21) and heart (FIG. 22) was determined by plating.
as §1, with “vein.” for “vein. A/J mice (Jackson Lab) were infected with a dose of 2×10^6 CFU. Balb/c mice (Charles River Laboratories, Hollister, Calif.) were infected with a dose of 2×10^7 CFU.”

MRSA [7] = experiment: intravenous infection model in CB17.SCID mice, treatment 1 day after infection; type: in vivo; details: AAC 50 mg/Kg or antibiotic 0.5 mg/Kg, 1 day post infection; kidneys day 4
Protocol: One day after infection, the mice were treated with 50 mg/Kg of S4497 antibody, 50 mg/Kg of S4497 dimethyl-pipBOR AAC 105 or with 0.5 mg/Kg of dimethyl-pipBOR antibiotic 7, the equivalent dose of antibiotic that is contained in 50 mg/Kg of AAC). Mice were sacrificed 4 days after infection and the total number of surviving bacteria per mouse (2 kidneys pooled) was determined by plating.
as §2

In the case of “thio-S4497-HC-A118C-MC-vc-PABC-(pipBOR) [rifa-102]”, the “inhibition of bacterial growth by intact AAC” value (MRSA [1]) is reported as “did not result in inhibition of bacterial growth unless the AACs were pre-treated with cathepsin B”, the “efficacy at the highest dose” value (MRSA (USA300 strain) [2]; 50 mg/Kg) is reported as “effective” and the “efficacy in kidney infection” value (MRSA (USA300 strain) [2]; 50 mg/Kg IV 30 minutes post infection, kidneys 4 days post infection) is reported as “cleared the infection in all of the mice tested”. For the same compound, the “efficacy at lower doses” value (MRSA (USA300 strain) [2]; doses below 50 mg/Kg) was “only partially efficacious” and the “intracellular killing of MRSA” value (MRSA (USA300 strain) [3]) was “effectively killed”.

For `CC(=O)NC[C@H]1CN(c2ccc(N3CCOCC3)c(F)c2)C(=O)O1` [Linezolid, linezolid], the MIC ([4]; Staphylococcus aureus, MRSA inside mouse peritoneal macrophages, antibiotic added 1 day after infection, survival 24 hours later) was greater than 20 µg/mL and the “killing of intracellular MRSA sequestered inside macrophages” value [4] was “failed to kill”.

In the case of `CN[C@H](CC(C)C)C(=O)N[C@H]1C(=O)N[C@@H](CC(N)=O)C(=O)N[C@H]2C(=O)N[C@H]3C(=O)N[C@H](C(=O)N[C@H](C(=O)O)c4cc(O)cc(O)c4-c4cc3ccc4O)[C@H](O)c3ccc(c(Cl)c3)Oc3cc2cc(c3O[C@@H]2O[C@H](CO)[C@@H](O)[C@H](O)[C@H]2O[C@H]2C[C@](C)(N)[C@H](O)[C@H](C)O2)Oc2ccc(cc2Cl)[C@H]1O` [Vancomycin, vancomycin], the “killing of intracellular MRSA sequestered inside macrophages” value [4] is listed as “failed to kill”, the “Serum Cmax” value [5] is listed as 10000 to 40000 ng/mL and the “effect of pre-treatment on bacterial loads in kidneys” value (USA300) is listed as “cleared the infection in all of the mice tested”. The “bacteria remaining viable during the first two hours of antibiotic treatment” value (MRSA [6]) was 90%, the “loss in viable bacteria by 5 hours” value (MRSA [6]) was 100 fold and the “reduction of bacterial loads” value (MRSA (USA300)) was “about 50 fold”.

In the case of `CCCCCCCCCC(=O)N[C@@H](Cc1c[nH]c2ccccc12)C(=O)N[C@H](CC(N)=O)C(=O)N[C@@H](CC(=O)O)C(=O)N[C@@H]1C(=O)NCC(=O)N[C@@H](CCCN)C(=O)N[C@@H](CC(=O)O)C(=O)N[C@H](C)C(=O)N[C@@H](CC(=O)O)C(=O)NCC(=O)N[C@H](CO)C(=O)N[C@@H]([C@H](C)CC(=O)O)C(=O)N[C@@H](CC(=O)c2ccccc2N)C(=O)O[C@@H]1C` [Daptomycin, daptomycin], the “killing of intracellular MRSA sequestered inside macrophages” value [4] is reported as “failed to kill”.

With `CO[C@H]1/C=C/O[C@@]2(C)Oc3c(C)c(O)c4c(=O)c(c5oc6cc(N7CCC(N(C)C)CC7)cc(O)c6nc-5c4c3C2=O)NC(=O)/C(C)=C\C=C\[C@H](C)[C@H](O)[C@@H](C)[C@@H](O)[C@@H](C)[C@H](OC(C)=O)[C@@H]1C` [dimethyl-pipBOR, dimethylpiperidyl benzoxazino rifamycin] the “potency at killing intracellular MRSA as free antibiotics” value [4] was “more potent than rifampicin” and the “efficacy against established infection” value (MRSA [7]) was “failed to clear the infection”.

In the case of “piperidyl benzoxazino rifamycin [pipBOR]”, the “potency at killing intracellular MRSA as free antibiotics” value [4] is reported as “more potent than rifampicin”.
